Columns and labels:
Phormia regina = test: Relative activity against blowfly flight muscle submitochondrial NADH dehydrogenase compared to rotenone; conditions: Muscle tissue
[1] = Inhibition of NADH dehydrogenase in blowfly flight-muscle submitochondrial preparation; type: tissue-based, Muscle tissue
[2] = Inhibition of NADH dehydrogenase in blowfly flight-muscle submitochondrial preparation experiment I; type: tissue-based, Phormia regina, Muscle tissue
[3] = Inhibition of NADH dehydrogenase in blowfly flight-muscle submitochondrial preparation experiment II; set-up: species or system Phormia regina, Muscle tissue

SMILES	Relative activity (Phormia regina) [%]	IC50 [1] [nM]	IC50 [2] [nM]	IC50 [3] [nM]
O=C1c2ccccc2O[C@@H]2CSc3ccccc3[C@H]12	0.0025	10000		
C=C(C)[C@H]1CC2=C(Cc3ccc4c(c3C2)O[C@@H]2COc3cc(OC)c(OC)cc3[C@@H]2C4=O)O1	100		0.25	1.5
COc1cc2c(cc1OC)[C@@H]1C(=O)c3ccccc3O[C@@H]1CO2	0.125	200		
COc1cc2c(cc1OC)[C@H]1[C@H](O)c3ccc4c(c3O[C@@H]1CO2)Cc1cc(C(C)C)oc1C4	0.063	400		
O=C1c2ccccc2O[C@@H]2COc3ccccc3[C@H]12	0.005	5000		
COc1cc2c(cc1OC)[C@@H]1C(=O)c3ccc4c(c3O[C@@H]1CO2)Cc1cc(C(C)C)oc1C4	75	2		
COc1cc2c(cc1OC)[C@@H]1C(=O)c3ccccc3O[C@@H]1CS2	0.083	300		
C=C(C)[C@H]1CC2=C(Cc3ccc4c(c3C2)O[C@@H]2COc3cc(OC)c(OC)cc3[C@H]2C4=O)O1	50	0.5		
COc1ccc2c(c1)O[C@@H]1COc3ccccc3[C@@H]1C2=O	0.0031	8000		
COc1cc2c(cc1OC)[C@H]1C(=O)c3ccc4c(c3O[C@@H]1CO2)Cc1cc(C(C)C)oc1C4	30	5		
COc1cc2c(cc1OC)[C@@H]1[C@H](O)c3ccc4c(c3O[C@@H]1CO2)Cc1cc(C(C)C)oc1C4	1	25		
COc1ccc2c(c1)O[C@@H]1COc3cc(OC)c(OC)cc3[C@@H]1C2=O [MUNDOSERONE]	1.67	15		
